Assay results as given in US6890969B2, “Polymer emulsion preservation using cationic compounds” (Air Products Polymers, L.P., priority 2000, dated 2005).
Where two headings read alike, the source gives them in different places.

Key:
GABL = GABL biochallenge test of preserved polymer emulsions (streak plate / RABIT), inoculations passed; type: cell-based, Gluconoacetobacter liquefaciens; details: for Inoculations Passed: PVOH-stabilized VAE emulsion, Tg 0 °C, <1000 ppm vinyl acetate; for preservative efficacy against GABL (in words): dosages similar to 200 ppm, failing immediately after the initial GABL inoculation; for preservative quality against GABL compared with cationic compounds (in words): common industrial biocides, CIT/MIT limited to 50 ppm, DBNPA to 100 ppm; for efficacy against GABL (in words): even at doses of 450 and 500 ppm
Description: GABL Inoculum Preparation
A recently isolated culture of GABL was grown on potato dextrose agar slants by inoculating the agar surface. The potato dextrose agar slants were incubated for 48-72 hours at 25° C. After this incubation period, GABL cells were harvested using quarter strength Ringers solution to wash the GABL colonies off of the agar surface. The washings from each slant were combined into one sterile, Erlenmeyer flask. The number of slants and the amount of quarter strength Ringers solution used to wash off the GABL colonies was adjusted during the procedure to obtain a final microbial viable count in the range of 10^8-10^10 CFU/mL.
Rapid Automated Bacterial Impedance Technique (RABIT): supplied by Microbiology International, manufactured by Don Whitley Scientific, Ltd.
RABIT utilizes the principal of impedance microbiology to detect and assess microbial activity in a given sample. Using the RABIT, microbial metabolism is monitored by measuring the amount of carbon dioxide produced by actively respiring microorganisms. The electrodes in the RABIT test cells are partially covered with alkaline agar containing potassium hydroxide. As inoculated test samples are monitored on the RABIT, carbon dioxide produced from microbial metabolism is absorbed by the alkaline agar resulting in a change in conductivity. Conductivity is monitored with time and the time to reach a pre-specified rate of reduction in conductivity is termed the time to detection (TTD). Therefore, the shorter the TTD, the higher the number of microorganisms present. Failure can be defined as three successive decreases in conductivity equal to or greater than a pre-specified value (−10 microSiemens is recommended by the manufacturer) at any time during the 72 hour RABIT monitoring period. Alternatively, failure can be defined as a pre-specified total change in conductivity.
Biochallenge Test Procedure
Samples (50 g each) of each test emulsion containing a test antimicrobial agent were inoculated with 1.0 mL of the GABL inoculum. After mixing well, the samples were then placed in a 30° C. incubator. After 1, 2, and 6 days of incubation each sample was streak plated onto potato dextrose agar to assess the level of surviving GABL microorganisms. The potato dextrose agar plates were incubated at 25° C. for 48-72 hours before assessing the growth. On the seventh day of incubation, each test emulsion sample was inoculated again with a freshly prepared GABL inoculum, mixed well, then placed back into the incubator. The samples were again streak plated onto potato dextrose agar after incubating for 1, 2, and 6 days since the second inoculation. On the fourteenth day after the test was initiated, the test emulsions were inoculated a third time with another freshly prepared GABL inoculum and then placed back into the incubator. The samples were again streak plated onto potato dextrose agar after 1, 2, 6, and 13 days of incubation since the third inoculation to assess surviving microorganisms. Test failure is defined as a microbial viable count >300 CFU/10 μL observed from the potato dextrose agar streak plate assessments.
Biochallenge Test Procedure Via the RABIT
A small amount of a microbial nutrient was added to each emulsion test sample (50 g) containing a test antimicrobial agent. The resulting samples were then inoculated with 1.0 mL of the GABL inoculum. After mixing well, an aliquot (5 g) of each test sample was placed into separate RABIT indirect conductivity tubes. The indirect conductivity tubes were then placed into the RABIT incubator modules set at 30° C. and the conductivity changes monitored for up to 72 hours. The remainder of each test sample was stored in a 30° C. incubator during the RABIT monitoring period. At the completion of the RABIT monitoring period, the aliquot samples were placed back into their respective sample containers. Each test sample was then re-inoculated with a freshly prepared GABL inoculum. […]

mixed bacterial pool = type: cell-based; details: PVOH-stabilized VAE emulsion Tg 0, <1000 ppm vinyl acetate
Description: The preservative efficacy of several cationic compounds in a poly(vinyl alcohol)-stabilized VAE copolymer emulsion (Tg=0) containing less than 1000 ppm vinyl acetate was assessed according to the following procedure:
Aeromonas hydrophilia, Alcaligenes faecalis, Corynebacterium ammoniagenes, Enterobacter aerogenes, Escherichia coli, Klebsiella pneumoniae, Pseudomonas aeruginosa, Proteus vulgaris, Providencia rettgeri, Pseudomonas stutzeri, Shewanella putrefaciens, Serratia liquefaciens, Acinetobacter baumannii, Burkholderia cepacia, Chryseobacterium meningosepticum, Sphingobacterium spiritivorum, Ralstonia pickettii, and GABL.
Mixed Bacterial Pool Inoculum Preparation
Each bacterial culture was individually grown on nutrient agar slants, except GABL was grown on potato dextrose agar slants, by inoculating the agar surfaces. The nutrient agar slants were incubated for 24-48 hours at 30° C. and the potato dextrose agar slants were incubated for 48-72 hours at 25° C. After this incubation period, the cells were harvested using quarter strength Ringers solution to wash the bacterial colonies off the agar surface. The washings from all of the slants were combined into one sterile, Erlenmeyer flask. The number of slants and the amount of Ringers Solution used to wash off the bacterial colonies is adjusted during the procedure to obtain a final mixed microbial viable count in the range of 10^8-10^10 CFU/mL.
Bacterial Biochallenge Test Procedure
The RABIT procedures were followed as described in Example 1, except the mixed bacterial pool inoculum was used to inoculate the test samples instead of the GABL inoculum.

CCCCCCCCCC[N+](C)(C)CCCCCCCCCC.[Cl-] [BTC ® 1010, Didecyldimethylammonium chloride]
Inoculations Passed (GABL; biocide dosage 200 ppm active, listed as BTC 1010): 3

CCCCCCCCCCCCCCCC[n+]1ccccc1 [CPC, cetylpyridinium chloride, reference compound]
Inoculations Passed (GABL; biocide dosage 100 ppm active): 0
Inoculations Passed (GABL; biocide dosage 250 ppm active): 2
Inoculations Passed (GABL; biocide dosage 300 ppm active): 5
Inoculations Passed (mixed bacterial pool; active biocide dosage 300 ppm): 5
Inoculations Passed (mixed bacterial pool; active biocide dosage 400 ppm): 7

CCCCCCCCCCCCCCCC[N+](C)(C)C.[Br-] [CTAB, cetyltrimethylammonium bromide]
Inoculations Passed (GABL; biocide dosage 300 ppm active): 1
preservative efficacy against GABL (in words) (GABL): ineffective

CC(=O)O.CC(=O)O.NC(=N\CCCCCC/N=C(N)/N=C(\N)Nc1ccc(Cl)cc1)/N=C(\N)Nc1ccc(Cl)cc1 [Chlorhexidine diacetate, reference compound]
Inoculations Passed (GABL; biocide dosage 400 ppm active): 0

N=C(NCCCCCCNC(=N)NC(=N)Nc1ccc(Cl)cc1)NC(=N)Nc1ccc(Cl)cc1.O=C(O)[C@H](O)[C@@H](O)[C@H](O)[C@H](O)CO.O=C(O)[C@H](O)[C@@H](O)[C@H](O)[C@H](O)CO [Chlorhexidine digluconate, reference compound]
Inoculations Passed (GABL; biocide dosage 250 ppm active): 0

N#CCCC(Br)(C#N)CBr (stereo not shown) [DBDCB, 1,2-dibromo-2,4-dicyanobutane, reference compound]
Inoculations Passed (GABL; biocide dosage 450 ppm active): 0
preservative quality against GABL compared with cationic compounds (in words) (GABL): inferior preservatives
efficacy against GABL (in words) (GABL): ineffective

N#CC(Br)(Br)C(N)=O [DBNPA, 2,2-dibromo-3-nitrilo-propionamide, reference compound]
Inoculations Passed (GABL; biocide dosage 100 ppm active): 0
preservative quality against GABL compared with cationic compounds (in words) (GABL): inferior preservatives
efficacy against GABL (in words) (GABL): ineffective

O=CCCCC=O [Glutaraldehyde, reference compound]
Inoculations Passed (GABL; biocide dosage 500 ppm active): 0
preservative quality against GABL compared with cationic compounds (in words) (GABL): inferior preservatives
efficacy against GABL (in words) (GABL): ineffective

NCC(=O)O [Glycine]
Inoculations Passed (GABL; biocide dosage 500 ppm active): 0

CCCCCCCCCC[N+](C)(C)CCCCCCCCCC.[Cl-] [TPI ® 1716, Didecyldimethylammonium chloride]
Inoculations Passed (GABL; biocide dosage 100 ppm active): 0
Inoculations Passed (GABL; biocide dosage 200 ppm active, listed as TPI 1716): 2
Inoculations Passed (GABL; biocide dosage 300 ppm active): ≧5

CC(C)[C@H](N)C(=O)O [Valine]
Inoculations Passed (GABL; biocide dosage 1000 ppm active): 0

[H]/N=C(\N/C(=N/[H])NCCCCCCNC(=N)NC(=N)Nc1ccc(Cl)cc1)Nc1ccc(Cl)cc1 [chlorhexidine, reference compound]
preservative efficacy against GABL (in words) (GABL): ineffective

Benzalkonium chloride [TPI ® 1717]
Inoculations Passed (GABL; biocide dosage 200 ppm active): 0
Inoculations Passed (GABL; biocide dosage 300 ppm active): 0

Tetrakis(hydroxymethyl) phosphonium sulfate [Tolcide ® PS]
Inoculations Passed (GABL; biocide dosage 500 ppm active): 0
